Results published in ChEMBL document CHEMBL3797087, “Synthesis of novel triazole/isoxazole functionalized 7-(trifluoromethyl)pyrido[2,3-d]pyrimidine derivatives as promising anticancer and antibacterial agents” (2016).
In brackets after ≈: the same amount, converted by molar mass.

Experiments:
Assay type in all cases: functional
HeLa = assay: Anticancer activity against human HeLa cells after 48 hrs by SRB assay
[1] = Anticancer activity against human PANC1 cells after 48 hrs by SRB assay; details: PANC-1, 48 h
MDA-MB-231 = assay: Anticancer activity against human MDA-MB-231 cells after 48 hrs by SRB assay; details: MDA-MB-231, 48 h
A549 = assay: Anticancer activity against human A549 cells after 48 hrs by SRB assay; details: A549, 48 h
Staphylococcus aureus [2] = assay: Antibacterial activity against Staphylococcus aureus after 24 hrs by agar diffusion assay
Bacillus licheniformis [3] = assay: Antibacterial activity against Bacillus licheniformis after 24 hrs by agar diffusion assay
Streptococcus pneumoniae [4] = assay: Antibacterial activity against Streptococcus pneumoniae after 24 hrs by agar diffusion assay
Escherichia coli [5] = assay: Antibacterial activity against Escherichia coli after 24 hrs by agar diffusion assay
Klebsiella pneumoniae [6] = assay: Antibacterial activity against Klebsiella pneumoniae after 24 hrs by agar diffusion assay
Pseudomonas aeruginosa [7] = assay: Antibacterial activity against Pseudomonas aeruginosa after 24 hrs by agar diffusion assay
Escherichia coli [8] = assay: Antibacterial activity against Escherichia coli after 24 to 48 hrs
Klebsiella pneumoniae [9] = assay: Antibacterial activity against Klebsiella pneumoniae after 24 to 48 hrs
Staphylococcus aureus [10] = assay: Antibacterial activity against Staphylococcus aureus after 24 to 48 hrs
Bacillus licheniformis [11] = assay: Antibacterial activity against Bacillus licheniformis after 24 to 48 hrs
Pseudomonas aeruginosa [12] = assay: Antibacterial activity against Pseudomonas aeruginosa after 24 to 48 hrs
Streptococcus pneumoniae [13] = assay: Antibacterial activity against Streptococcus pneumoniae after 24 to 48 hrs

Row | Compound | GI50 (HeLa) | GI50 [1] | GI50 (MDA-MB-231) | GI50 (A549) | inhibition zone (IZ) (Staphylococcus aureus [2]) | inhibition zone (IZ) (Bacillus licheniformis [3]) | inhibition zone (IZ) (Streptococcus pneumoniae [4]) | inhibition zone (IZ) (Escherichia coli [5]) | inhibition zone (IZ) (Klebsiella pneumoniae [6]) | inhibition zone (IZ) (Pseudomonas aeruginosa [7]) | MIC (Escherichia coli [8]) | MIC (Klebsiella pneumoniae [9]) | MIC (Staphylococcus aureus [10]) | MIC (Bacillus licheniformis [11]) | MIC (Pseudomonas aeruginosa [12]) | MIC (Streptococcus pneumoniae [13])
1 | CCc1nc2nc(C(F)(F)F)ccc2c(=O)n1Cc1cn(CCC(F)(F)C(F)(F)C(F)(F)C(F)(F)C(F)(F)C(F)(F)F)nn1 | 930 nM | 730 nM | 2830 nM | 30 nM |  |  |  |  |  |  |  |  |  |  |  | 
2 | O=c1c2ccc(C(F)(F)F)nc2nc(-c2ccccc2)n1Cc1cn(-c2ccc([N+](=O)[O-])cc2)nn1 | 860 nM | 2550 nM | 1240 nM | 770 nM |  |  |  |  |  |  |  |  |  |  |  | 
3 | CCCCCCCCCCn1cc(COc2nc(-c3ccccc3)nc3nc(C(F)(F)F)ccc23)nn1 | 1040 nM | 490 nM | 1050 nM | 2310 nM | 10 mm | 8 mm | 16 mm |  |  |  |  |  |  |  |  | 
4 | CCc1nc2nc(C(F)(F)F)ccc2c(=O)n1Cc1cn(CC(=O)Nc2ccccc2)nn1 | 860 nM | 320 nM | 1700 nM | 5260 nM |  |  |  |  |  |  |  |  |  |  |  | 
5 | CCCCCCCCCCn1cc(Cn2c(-c3ccco3)nc3nc(C(F)(F)F)ccc3c2=O)nn1 | 870 nM | 3180 nM | 1100 nM | 200 nM |  |  |  |  |  |  |  |  |  |  |  | 
6 | FC(F)(F)c1ccc2c(OCc3cn(CCC(F)(F)C(F)(F)C(F)(F)C(F)(F)C(F)(F)C(F)(F)F)nn3)nc(-c3ccccc3)nc2n1 | 1200 nM | 2990 nM | 520 nM | 1910 nM |  |  |  |  |  |  |  |  |  |  |  | 
7 | O=c1c2ccc(C(F)(F)F)nc2ncn1Cc1cn(-c2ccc([N+](=O)[O-])cc2)nn1 | 890 nM | 1890 nM | 140 nM | 300 nM |  |  |  |  |  |  |  |  |  |  |  | 
8 | O=C(Cn1cc(COc2nc(-c3ccccc3)nc3nc(C(F)(F)F)ccc23)nn1)Nc1ccccc1 | 890 nM | 4500 nM | 650 nM | 140 nM |  |  |  |  |  |  |  |  |  |  |  | 
9 | O=c1c2ccc(C(F)(F)F)nc2ncn1Cc1cc(-c2ccc(Br)cc2)no1 | 1240 nM | 1160 nM | 710 nM | 3810 nM |  |  |  |  |  |  |  |  |  |  |  | 
10 | CCCCCCCCn1cc(Cn2c(CC)nc3nc(C(F)(F)F)ccc3c2=O)nn1 | 1270 nM | 3280 nM | 1340 nM | 2870 nM | 9 mm | 8 mm | 6 mm | 7 mm | 7 mm | 7 mm |  |  |  |  |  | 
11 | O=c1c2ccc(C(F)(F)F)nc2ncn1Cc1cc(-c2ccc(Cl)cc2)no1 | 840 nM | 7080 nM | 870 nM | 1090 nM |  |  |  |  |  |  |  |  |  |  |  | 
12 | O=c1c2ccc(C(F)(F)F)nc2nc(-c2ccccc2)n1Cc1cn(CCC(F)(F)C(F)(F)C(F)(F)C(F)(F)C(F)(F)C(F)(F)F)nn1 | 870 nM | 2950 nM | 9890 nM | 520 nM |  |  |  |  |  |  |  |  |  |  |  | 
13 | O=c1c2ccc(C(F)(F)F)nc2nc(-c2ccccc2)n1Cc1cc(-c2cccc3ccccc23)no1 | 910 nM | 140 nM | 1010 nM | 3140 nM |  |  |  |  |  |  |  |  |  |  |  | 
14 | COc1cc(-n2cc(COc3nc(-c4ccccc4)nc4nc(C(F)(F)F)ccc34)nn2)cc(OC)c1OC | 890 nM | 820 nM | 240 nM | 4050 nM |  |  |  |  |  |  |  |  |  |  |  | 
15 | CCCCCCCCCCn1cc(Cn2c(CC)nc3nc(C(F)(F)F)ccc3c2=O)nn1 | 810 nM | 20 nM | 2210 nM | 860 nM | 15 mm | 21 mm | 28 mm | 25 mm | 19 mm | 16 mm | 25 µg/mL (≈ 53.8 µM) | 25 µg/mL (≈ 53.8 µM) | 12.5 µg/mL (≈ 26.9 µM) | 12.5 µg/mL (≈ 26.9 µM) | 12.5 µg/mL (≈ 26.9 µM) | 12.5 µg/mL (≈ 26.9 µM)
16 | CCCCCCCCn1cc(COc2nc(-c3ccccc3)nc3nc(C(F)(F)F)ccc23)nn1 | 950 nM | 2660 nM | 570 nM | 5330 nM | 22 mm | 21 mm | 26 mm | 8 mm |  |  |  |  | 12.5 µg/mL (≈ 25.8 µM) | 25 µg/mL (≈ 51.6 µM) |  | 12.5 µg/mL (≈ 25.8 µM)
17 | O=C(O)c1cn(C2CC2)c2cc(N3CCNCC3)c(F)cc2c1=O [CIPROFLOXACIN] |  |  |  |  | 25 mm | 24 mm | 23 mm |  | 22 mm | 25 mm | 12.5 µg/mL (≈ 37.7 µM) | 12.5 µg/mL (≈ 37.7 µM) | 12.5 µg/mL (≈ 37.7 µM) | 12.5 µg/mL (≈ 37.7 µM) |  | 12.5 µg/mL (≈ 37.7 µM)
18 | COC(=O)Nc1nc2cc(C(=O)c3cccs3)ccc2[nH]1 [NOCODAZOLE] | 63 nM | 29 nM | 42 nM | 80 nM |  |  |  |  |  |  |  |  |  |  |  | 
19 | CO[C@H]1/C=C/O[C@@]2(C)Oc3c(C)c(O)c4c(O)c(c(/C=N/N5CCN(C)CC5)c(O)c4c3C2=O)NC(=O)/C(C)=C\C=C\[C@H](C)[C@H](O)[C@@H](C)[C@@H](O)[C@@H](C)[C@H](OC(C)=O)[C@@H]1C [RIFAMPIN] |  |  |  |  | 25 mm | 24 mm | 25 mm | 27 mm | 27 mm | 29 mm |  |  |  |  |  | 
